From PubChem BioAssay AID1963975 (Molecular Pharmacology Branch, DTP, NCI, 2024)
pIC50: −log10 of the molar value. “And” between values parts separate entries of the source, which are not always exact repeats. Equal values may be shown once. Each block holds one compound with its values, some of them ahead of it.

System: 624824-186-R-J2-PDC multicell spheroids, viability
Assay: Anticancer human tumor 624824-186-R-J2-PDC patient-derived colon adenocarcinoma cell line growth inhibition [PI3K]
Details: for viability, T/C: stronger effect = lower value
Source text: Combinatorial screen of targeted agents with the PI3K inhibitors inavolisib, alpelisib, duvelisib, and copanlisib in multi-cell type tumor spheroids
A high-throughput screen of multi-cell type tumor spheroids was designed to identify active combinations of targeted small molecules and PI3K pathway inhibitors. Complex spheroids include a stromal component modeled by human endothelial cells (HUVEC) and fibroblasts modeled by human mesenchymal stem cells (MSCs). The concentration ranges selected for each drug and investigational agent were based upon clinically achievable concentrations if the clinical Cmax of the agent was known.
Compounds. The drugs and investigational agents: inavolisib (NSC800729), alpelisib (NSC765974), duvelisib (NSC772469), copanlisib (NSC816437), ipatasertib (NSC767898), afuresertib (NSC778305), talazoparib (NSC767125), sapanisertib (NSC764658), selumetinib (NSC741078), tovorafenib (DAY101, NSC766906), vemurafenib (NSC761431), ravoxertinib (NSC781343), sotorasib (NSC818433), MRTX1133 (NSC 836407), abemaciclib (NSC 768073), palbociclib (NSC758247), venetoclax (NSC 766270), SY5609 (NSC837396), enzalutamide (NSC755605), and darolutamide (NSC825331), were obtained from the National Cancer Institute (NCI) Developmental Therapeutics Program Chemical Repository. The FDA-approved anticancer drug set is available from the NCI Developmental Therapeutics Program. […] The stock solutions were prepared in dimethyl sulfoxide (DMSO, Sigma-Aldrich, St. Louis, MO, cat. D2650) at 800-fold the tested concentration and stored at -70 degrees C prior to their use. All drugs and investigational agents were tested over a range starting from a high concentration at or near the clinical Cmax and decreasing in half-log increments. If the clinical Cmax for an agent had not been determined, the highest concentration tested was 10 microM.
Cell Culture. All cells were maintained in an incubator at 37 degrees C and 5% CO2 with 95% humidity. The PDC lines were cultured according to standard operating procedures established by the NCI PDMR (https://pdmr.cancer.gov/sops/default.htm). All PDCs were thawed and cultured in Matrigel-coated flasks prepared with a working solution of 1X Ham's F-12 nutrient mix, without supplementation (Invitrogen, Waltham, MA, cat. 11765054), 100 U/mL penicillin-streptomycin (Invitrogen, cat. 15140122), and 2.5% Matrigel (Corning Inc., Corning, NY, cat. 354248) for the first three passages. The 354836-022-R-J1-PDC, 475296-252-R-J1-PDC, and 997726-040-R-J2-PDC lines were cultured in 6A media, which includes advanced DMEM/F-12 (Thermo Fisher Scientific, cat. 12634028), 10 mM HEPES (Thermo Fisher Scientific, cat. 15630080), 1X GlutaMAX supplement (Thermo Fisher Scientific, cat. 35050061), 0.1 mg/mL primocin (InvivoGen, San Diego, CA, cat. ant-pm-2), 10% defined fetal bovine serum, heat inactivated (HyClone Laboratories Inc., Logan, UT, cat. SH30070.03HI), 50% L-WRN conditioned media (ATCC, cat. CRL-3276), 1.25 mM N-Acetyl-L-cysteine (Sigma-Aldrich, cat. A9165), 10 mM nicotinamide (Sigma-Aldrich, cat. N0636), 1X B-27 supplement (Thermo Fisher Scientific, cat. 17504044), 1X N-2 supplement (Thermo Fisher Scientific, cat. 17502048), and 10 microM Y-27632 dihydrochloride (Tocris Bioscience, Bristol, United Kingdom, cat. 1254). The 624824-186-R-J2-PDC line was cultured in 6C/Colon 1B media, which includes all 6A media components plus 50 ng/mL human EGF recombinant protein (Thermo Fisher Scientific, cat. PHG0311). […]

[1] = curve of first compound, second compound 0.0316 µM
[2] = curve of first compound, second compound 0.1 µM
[3] = curve of first compound, second compound 0.316 µM
[4] = curve of first compound, second compound 1 µM
[5] = second compound 0.0316 µM, first compound 0.0316 µM
[6] = second compound 0.0316 µM, first compound 0.1 µM
[7] = second compound 0.0316 µM, first compound 0.316 µM
[8] = second compound 0.0316 µM, first compound 1 µM
[9] = second compound 0.0316 µM, first compound 3.16 µM
[10] = second compound 0.0316 µM, first compound 10 µM
[11] = second compound 0.1 µM, first compound 0.0316 µM
[12] = second compound 0.1 µM, first compound 0.1 µM
[13] = second compound 0.1 µM, first compound 0.316 µM
[14] = second compound 0.1 µM, first compound 1 µM
[15] = second compound 0.1 µM, first compound 3.16 µM
[16] = second compound 0.1 µM, first compound 10 µM
[17] = second compound 0.316 µM, first compound 0.0316 µM
[18] = second compound 0.316 µM, first compound 0.1 µM
[19] = second compound 0.316 µM, first compound 0.316 µM
[20] = second compound 0.316 µM, first compound 1 µM
[21] = second compound 0.316 µM, first compound 3.16 µM
[22] = second compound 0.316 µM, first compound 10 µM
[23] = second compound 1 µM, first compound 0.0316 µM
[24] = second compound 1 µM, first compound 0.1 µM
[25] = second compound 1 µM, first compound 0.316 µM
[26] = second compound 1 µM, first compound 1 µM
[27] = second compound 1 µM, first compound 3.16 µM
[28] = second compound 1 µM, first compound 10 µM
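Further: spheroids exposed to agents for 7 days before viability read.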
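Wherever viability, T/C is given: 100% = DMSO vehicle treated spheroids.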

pIC50 (curve of first compound, second compound 0.00316 µM): 5.46
pIC50 (curve of first compound, second compound 0.01 µM): 5.46
pIC50 [1]: 5.65
pIC50 [2]: 5.84
pIC50 [3]: 6.55
pIC50 [4]: > 7.50
SMILES: CC1(C)CCC(Nc2ncc(C(F)(F)F)c(-c3c[nH]c4c(P(C)(C)=O)c(C#N)ccc34)n2)CN1 (stereo not given) + COc1c(OCCCN2CCOCC2)ccc2c3n(c(=NC(=O)c4cnc(N)nc4)nc12)CCN3
viability, T/C (second compound 0.00316 µM, first compound 0.0316 µM): 78.3%
viability, T/C (second compound 0.00316 µM, first compound 0.1 µM): 104%
viability, T/C (second compound 0.00316 µM, first compound 0.316 µM): 92.2%
viability, T/C (second compound 0.00316 µM, first compound 1 µM): 89.3%
viability, T/C (second compound 0.00316 µM, first compound 3.16 µM): 54.4%
viability, T/C (second compound 0.00316 µM, first compound 10 µM): 4.77%
viability, T/C (second compound 0.01 µM, first compound 0.0316 µM): 73.5%
viability, T/C (second compound 0.01 µM, first compound 0.1 µM): 76.8%
viability, T/C (second compound 0.01 µM, first compound 0.316 µM): 94.8%
viability, T/C (second compound 0.01 µM, first compound 1 µM): 83.1%
viability, T/C (second compound 0.01 µM, first compound 3.16 µM): 54.2%
viability, T/C (second compound 0.01 µM, first compound 10 µM): 4.78%
viability, T/C [5]: 82.5%
viability, T/C [6]: 75.9%
viability, T/C [7]: 71.5%
viability, T/C [8]: 61.7%
viability, T/C [9]: 46.9%
viability, T/C [10]: 3.67%
viability, T/C [11]: 63.6%
viability, T/C [12]: 56.9%
viability, T/C [13]: 55.1%
viability, T/C [14]: 49.1%
viability, T/C [15]: 45.6%
viability, T/C [16]: 4.59%
viability, T/C [17]: 54%
viability, T/C [18]: 51.7%
viability, T/C [19]: 47.9%
viability, T/C [20]: 43.8%
viability, T/C [21]: 35.4%
viability, T/C [22]: 2.98%
viability, T/C [23]: 43%
viability, T/C [24]: 44.8%
viability, T/C [25]: 42.7%
viability, T/C [26]: 37.2%
viability, T/C [27]: 32.5%
viability, T/C [28]: 2.59%

pIC50 (curve of compound): < 5.00
SMILES: C=CC(=O)N1CCN(c2nc(=O)n(-c3c(C)ccnc3C(C)C)c3nc(-c4c(O)cccc4F)c(F)cc23)C(C)C1 (stereo not given)
viability, T/C (compound 0.1 µM): 82% [middle of 4 runs]
viability, T/C (compound 0.316 µM): 82.1% [middle of 4 runs]
viability, T/C (compound 1 µM): 99.7% [middle of 4 runs]
viability, T/C (compound 10 µM): 100% [middle of 4 runs]

pIC50 [1]: < 5.00
pIC50 [2]: < 5.00
pIC50 [3]: < 5.00
pIC50 [4]: < 5.00
pIC50 (curve of first compound, second compound 3.16 µM): < 5.00
pIC50 (curve of first compound, second compound 10 µM): < 5.00
SMILES: C#Cc1c(F)ccc2cc(O)cc(-c3ncc4c(N5CC6CCC(C5)N6)nc(OCC56CCCN5CC(F)C6)nc4c3F)c12 (stereo not given) + CC(Nc1ncnc2nc[nH]c12)c1cc2cccc(Cl)c2c(=O)n1-c1ccccc1
viability, T/C [5]: 81.5%
viability, T/C [6]: 80%
viability, T/C [7]: 106%
viability, T/C [8]: 73.1%
viability, T/C [9]: 93.2%
viability, T/C [10]: 59.5%
viability, T/C [11]: 83.8%
viability, T/C [12]: 78.7%
viability, T/C [13]: 76%
viability, T/C [14]: 74.1%
viability, T/C [15]: 77.9%
viability, T/C [16]: 67.7%
viability, T/C [17]: 78.9%
viability, T/C [18]: 93.6%
viability, T/C [19]: 93.8%
viability, T/C [20]: 82.5%
viability, T/C [21]: 64.5%
viability, T/C [22]: 71.9%
viability, T/C [23]: 73%
viability, T/C [24]: 72.8%
viability, T/C [25]: 81%
viability, T/C [26]: 76.6%
viability, T/C [27]: 86.3%
viability, T/C [28]: 75.5%
viability, T/C (second compound 3.16 µM, first compound 0.0316 µM): 78.8%
viability, T/C (second compound 3.16 µM, first compound 0.1 µM): 97.9%
viability, T/C (second compound 3.16 µM, first compound 0.316 µM): 74.7%
viability, T/C (second compound 3.16 µM, first compound 1 µM): 84.3%
viability, T/C (second compound 3.16 µM, first compound 3.16 µM): 94.6%
viability, T/C (second compound 3.16 µM, first compound 10 µM): 70.2%
viability, T/C (second compound 10 µM, first compound 0.0316 µM): 87.4%
viability, T/C (second compound 10 µM, first compound 0.1 µM): 83.2%
viability, T/C (second compound 10 µM, first compound 0.316 µM): 91.4%
viability, T/C (second compound 10 µM, first compound 1 µM): 102%
viability, T/C (second compound 10 µM, first compound 3.16 µM): 98%
viability, T/C (second compound 10 µM, first compound 10 µM): 89.4%

pIC50 (curve of compound): 5.02 and < 5.00 and 5.03
SMILES: CCCS(=O)(=O)Nc1ccc(F)c(C(=O)c2c[nH]c3ncc(-c4ccc(Cl)cc4)cc23)c1F
viability, T/C (compound 0.0316 µM): 90.4% [middle of 4 runs]
viability, T/C (compound 0.1 µM): 90.6% [middle of 4 runs]
viability, T/C (compound 0.316 µM): 88% [middle of 4 runs]
viability, T/C (compound 3.16 µM): 122% [middle of 4 runs]
viability, T/C (compound 10 µM): 52.3% [middle of 4 runs]
